Measurements reported in ChEMBL document CHEMBL1154909, “Dammarane-type glycosides from Gynostemma pentaphyllum and their effects on IL-4-induced eotaxin expression in human bronchial epithelial cells” (J Nat Prod, 2010).

Experiments:
BEAS-2B = experiment: Antiinflammatory activity in human BEAS2B cells assessed as inhibition of IL4-induced eotaxin production after 48 hrs by ELISA pretreated for 2 hrs before IL4 challenge; format: functional, cell-based
[1] = Cytotoxicity against human BEAS2B cells at 10 uM after 48 hrs by MTT assay; format: cell-based; details: beas-2b
[2] = Antiinflammatory activity in human BEAS2B cells assessed as inhibition of IL4 and TNF-alpha-induced eotaxin production after 48 hrs by ELISA pretreated for 2 hrs before IL4 and TNFalpha challenge (Rvb= 450+/-38.4 pg/mL); format: functional, BEAS-2B
[3] = Cytotoxicity against human BEAS2B cells at 10 uM after 48 hrs by MTT assay in the presence of IL4; format: cell-based; details: beas-2b
[4] = Antiinflammatory activity in human BEAS2B cells assessed as inhibition of IL4 and TNF-alpha-induced eotaxin production at 10 uM after 48 hrs by ELISA pretreated for 2 hrs before IL4 and TNFalpha challenge; format: functional, BEAS-2B
[5] = Antiinflammatory activity in human BEAS2B cells assessed as inhibition of IL4-induced eotaxin production at 10 uM after 48 hrs by ELISA pretreated for 2 hrs before IL4 challenge (reference value: 58.5+/-4.7 ng/mL); format: functional, BEAS-2B

## CC(C)=CCC[C@](C)(O[C@@H]1O[C@H](CO[C@@H]2OC[C@@H](O)[C@H](O)[C@H]2O)[C@@H](O)[C@H](O)[C@H]1O)[C@H]1CC[C@]2(C)[C@@H]1[C@H](O)C[C@@H]1[C@@]3(C)C[C@@H](O)[C@H](O[C@@H]4O[C@H](CO)[C@@H](O[C@@H]5O[C@H](CO)[C@@H](O)[C@H](O)[C@H]5O)[C@H](O)[C@H]4O)C(C)(C)[C@@H]3CC[C@]12C
BEAS-2B
  Activity: Dose-dependent effect
[1]
  Activity: Non-toxic
[2]
  Activity: 197.2 pg/mL
[3]
  Activity: Non-toxic

## CC(=O)OC[C@H]1O[C@@H](O[C@H]2[C@H](O[C@@](C)(CCC=C(C)C)[C@H]3CC[C@]4(C)[C@@H]3[C@H](O)C[C@@H]3[C@@]5(C)C[C@@H](O)[C@H](O[C@@H]6O[C@H](CO)[C@@H](O)[C@H](O)[C@H]6O)C(C)(C)[C@@H]5CC[C@]34C)O[C@H](CO)[C@@H](O)[C@@H]2O)[C@H](O)[C@@H](O)[C@@H]1O
BEAS-2B
  Activity: Dose-dependent effect
[4]
  Activity: 157.2 pg/mL

## COc1ccc2ccc(=O)oc2c1CC=C(C)C [OSTHOLE]
[4]
  Activity: 187.3 pg/mL
[5]
  Activity: 16.8 pg/mL
